Common to all, as to experiment: NCI-60 cell line screen, 48 h
Test [1] has as its system A549.
The test system of test [2] is CAKI-1.
Test [3] relates to EKVX.
The test system of test [4] is HCC 2998.
Test [5] deals with HCT-15.
For test [6], the system named is HOP-18.
The test system of test [7] is HOP-62.
Test [8] relates to KM12.
The test system of test [9] is Malme-3M.
Test [10] concerns NCI-H226.
Test [11] has as its system SF-295.
Test [12] has as its system SK-MEL-28.
The test system of test [13] is SK-MEL-5.
In test [14] the test system is SK-OV-3.
For test [15], the system named is SN12C.
Test [16] concerns SNB-19.
Test [17] relates to SNB-75.
The subject of test [18] is U-251.

Eight molecules from ChEMBL document CHEMBL1201862, “PubChem BioAssay data set” (2004) can be followed below.

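Cultured in 96-well plates, cells were exposed to test compound for 48 hours across five concentrations. GI50 = concentration required for 50% inhibition of growth.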 The source made the active and inactive calls. Rule as the data show it: active = GI50 up to about 1.1 µM and inactive = higher.

With `CCOC(=O)CCC(NC(=O)c1ccc(/N=C/c2nc3cc(C(F)(F)F)ccc3nc2-c2ccccc2)cc1)C(=O)OCC` (stereo not drawn), the GI50 was 25.1 µM (inactive) in test [1]; 32.4 µM (inactive) in test [2]; 28.9 µM (inactive) in test [3]; > 50 µM (inactive) in test [4]; over 50 µM in test [5]; > 100 µM (inactive) in test [6]. The GI50 in test [7] was 12.9 µM (inactive); in [8], 18.3 µM (inactive); in test [9] it was 6.4 µM (inactive); in test [10], > 50 µM (inactive); in test [11], 9.84 µM (inactive); in [12], > 50 µM (inactive). In addition, the GI50 in test [13] is 25.1 µM (inactive); in [14] it was 8.77 µM (inactive); in [15], > 50 µM (inactive); in test [16] it was 10.6 µM (inactive); in test [17], 5.04 µM (inactive); in test [18], 6.07 µM (inactive).
Take `COC(=O)c1c/c(=N\NC(=O)CC(=O)Nc2ccccc2OC)c2ccccc2o1`: the GI50 was 74.8 µM (inactive) in [1]; > 100 µM (inactive) in [2]; > 100 µM (inactive) in test [3]; 93.1 µM (inactive) in [4]; over 100 µM in [5]; 15.2 µM (inactive) in test [6]. Moreover, the GI50 in [7] is > 100 µM (inactive); in test [8], > 100 µM (inactive); in test [10], > 100 µM (inactive); in test [12], > 100 µM (inactive); in test [13] it was 91.8 µM (inactive); in [14] it was > 100 µM (inactive). Also, the GI50 in test [15], in test [16], in test [17] and in test [18] was > 100 µM (inactive) in each case.
Consider `O=C1CC(c2ccc(Cl)cc2)=Nc2ccccc2N1`, for which the GI50 in [1] is > 100 µM (inactive); in [2] it was > 100 µM (inactive); in [3], 47.3 µM (inactive); in test [4], 97.1 µM (inactive); in [5], 65.8 µM; in [6], 40.9 µM (inactive). Moreover, the GI50 in [7] is 40.6 µM (inactive); in test [8] it was > 100 µM (inactive); in test [9], > 100 µM (inactive); in test [10], > 100 µM (inactive); in [11], 86.7 µM (inactive); in [12], > 100 µM (inactive). The GI50 is > 100 µM (inactive) in [13]; 32.7 µM (inactive) in test [14]; 46.7 µM (inactive) in [15]; 51.6 µM (inactive) in test [16]; 20.6 µM (inactive) in [17]; 20.7 µM (inactive) in [18].
As for `CCOC(=O)C(C)(C)Oc1ccc2c(=O)cc(-c3ccccc3)oc2c1`, the GI50 is 23.1 µM (inactive) in [1]; 31.9 µM (inactive) in test [3]; > 100 µM (inactive) in test [4]; 20 µM in test [5]; 22.8 µM (inactive) in [6]; 18.5 µM (inactive) in test [7]. For the same molecule, the GI50 in test [8] is 18.9 µM (inactive); in test [9], 22.9 µM (inactive); in test [10], 22.8 µM (inactive); in [11] it was 26.5 µM (inactive); in test [12] it was 16.7 µM (inactive); in [13], 14.8 µM (inactive). The GI50 in test [14] is > 100 µM (inactive); in test [15], 32.1 µM (inactive); in [16], 18.8 µM (inactive); in test [17], 19.1 µM (inactive); in [18] it was 18.2 µM (inactive).
As for `N#CC(C(=O)CCC(=O)C(C#N)c1ccccc1)c1ccccc1` (stereo not drawn), the GI50 in [1] is > 100 µM (inactive); in [2], > 100 µM (inactive); in test [3] it was > 100 µM (inactive); in [4], > 100 µM (inactive); in [5], over 100 µM; in [6], > 100 µM (inactive). Besides, the GI50 in test [7], in test [8], in test [9], in test [10], in [11] and in [12] was > 100 µM (inactive) throughout. In addition, the GI50 in [13], in test [14], in [15], in [16], in test [17] and in test [18] was > 100 µM (inactive) in each case.
`COC1(OC)CCCCC2c3cccc(OC(C)=O)c3C21OC(C)=O` (stereo not drawn): the GI50 in test [1] was > 100 µM (inactive); in test [3], > 100 µM (inactive); in test [4], > 100 µM (inactive); in test [5], 73.8 µM; in [6], > 100 µM (inactive); in [7], > 100 µM (inactive). For the same molecule, the GI50 in [8], in test [9], in test [10], in test [11], in test [12] and in [13] was > 100 µM (inactive) in each case. Besides, the GI50 in [14], in [15], in test [16] and in test [17] was > 100 µM (inactive) throughout.
As for `Cc1cccc(C)c1NC(=O)CCC(=O)NNc1nnc(C)n1N`, the GI50 in test [1] was > 100 µM (inactive); in test [2], > 100 µM (inactive); in test [3] it was > 100 µM (inactive); in test [4] it was > 100 µM (inactive); in test [5], over 100 µM; in test [6], > 100 µM (inactive). For the same molecule, the GI50 in test [7], in test [8], in test [9], in test [10], in test [11] and in test [12] was > 100 µM (inactive) in each case. Moreover, the GI50 in test [13], in [14], in test [15], in [16], in [17] and in test [18] was > 100 µM (inactive) throughout.
Consider `CC1CC[C@]2(C(=O)O)CCC3(COC(=O)/C=C\c4ccc(O)cc4)C(=CCC4[C@@]5(C)CC[C@H](O)C(C)(C)C5CC[C@]43C)[C@@H]2[C@H]1C` (stereo partly drawn), for which the GI50 in [1] is 11.3 µM (inactive); in test [2], 11.4 µM (inactive); in [3], 16.7 µM (inactive); in test [4], 17.2 µM (inactive); in [5], 21 µM; in test [6], 27.5 µM (inactive). Besides, the GI50 in [8] was 7.21 µM (inactive); in test [9] it was 34.8 µM (inactive); in test [10], 18.5 µM (inactive); in test [11], 17.1 µM (inactive); in [12] it was 20 µM (inactive); in [13], 18.2 µM (inactive). For the same molecule, the GI50 in [14] was 3.5 µM (inactive); in test [15] it was 20.8 µM (inactive); in test [16], 12.3 µM (inactive); in test [17] it was 27.7 µM (inactive); in [18], 9.79 µM (inactive).
